We go through 14 compounds from PubChem BioAssay AID651675 (Sanford-Burnham Center for Chemical Genomics, 2012).

The test relates to Pro5-aDG cells, alpha-DG glycosylation, IIH6 AlphaLISA. Kind of test: alpha-DG glycosylation activators, analog potency, SAR follow-up, Pro5-aDG cells, AlphaLISA (AID 651675). (In general: Bead proximity is the source of the signal in Alpha formats.)

The structures appear in SMILES notation. Activity calls are given as the source filed them.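 The calls were made as follows: active = compounds raising alpha-dystroglycan glycosylation signal with mean half-maximal concentration of 20 µM or lower; inactive = the rest.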

Usually EC50 stands for the concentration that produces a half-maximal response. On to `C=CCn1c(=N)n(CC(=O)c2ccc(Cl)c(Cl)c2)c2ccccc21`, for which the EC50 is 33.3 µM (inactive).

As to `CCC(C)Nc1nc(-c2c[nH]c3ccccc23)cs1` (centres undefined), the EC50 was 7.05 µM.

Consider `c1ccc(CCNc2nc(-c3c[nH]c4ccccc34)cs2)cc1`, for which the EC50 is 5.13 µM.

`CC(Cc1ccccc1)Nc1nc(-c2c[nH]c3ccccc23)cs1` (centres undefined): the EC50 was 8.68 µM.

On to `C=CCNc1nc(-c2c[nH]c3ccccc23)cs1`, for which the EC50 is 5.69 µM.

Turning to `Cn1c(=N)n(CC(=O)c2ccc(Cl)c(Cl)c2)c2ccccc21`, the EC50 is 26 µM (inactive).

For `N=c1n(CCN2CCCC2)c2ccccc2n1CC(=O)c1ccc(Cl)c(Cl)c1`, the EC50 was 24.2 µM (inactive).

With `CCn1c(=N)n(CC(=O)c2ccc(Cl)cc2)c2ccccc21`, the EC50 was 26.6 µM (inactive).

With `CCc1cccc2c(-c3csc(NC)n3)c[nH]c12`, the half-maximal effective concentration (EC50) was 3.99 µM.

For `N=c1n(CC(=O)c2ccc(Cl)c(Cl)c2)c2ccccc2n1Cc1ccccc1`, the EC50 is 15.5 µM.

For `Cn1c(=N)n(CC(=O)c2ccc(F)cc2)c2ccccc21`, the EC50 is 34.5 µM (inactive).

On to `Cn1c(=N)n(CC(=O)c2ccc(Cl)cc2)c2ccccc21`, for which the EC50 was 30.9 µM (inactive).

Consider `CNc1nc(-c2c[nH]c3ccccc23)cs1`, for which the EC50 is 10.3 µM.

`CCn1c(=N)n(CC(=O)c2ccc(Cl)c(Cl)c2)c2ccccc21`: the EC50 was 25.2 µM (inactive).
